# In BindingDB's records for doi:10.1021/jm00128a026 (Roche Research Center, 1989):
# Biological target: Platelet-activating factor receptor (Canis lupus familiaris)
# Assay: Inhibition of [3H]PAF binding to dog platelets.
row,SMILES,IC50 [nM]
1,COc1ccc(/C(=C/C=C/C(=O)N[C@H](C)CCCc2cccnc2)c2ccccc2)cc1,2
2,CCC[C@H](CCCc1cccnc1)NC(=O)/C=C/C=C(c1ccc(OC)cc1)c1ccc(OC)cc1,> 1000
3,COc1cccc(/C(=C\C=C\C(=O)NCCCCc2cccnc2)c2cccc(F)c2)c1,25
4,COc1ccc(C(=C/C=C/C(=O)Nc2ccc(-c3cccnc3)cc2)c2ccc(OC)cc2)cc1,10
5,COc1ccc(C(=C/C=C/C(=O)Nc2ccc(Cc3cccnc3)cc2)c2ccc(OC)cc2)cc1,250
6,COc1ccc(/C(=C/C=C/C(=O)N[C@H](C)CCCc2cccnc2)C2CCCCC2)cc1,20
7,CCCC/C(=C\C=C\C(=O)N[C@H](C)CCCc1cccnc1)c1ccc(OC)cc1,14
8,Cc1ccc(C(=C/C=C/C(=O)N[C@H](C)CCCc2cccnc2)c2ccc(C)cc2)cc1,250
9,O=C(CCCCC=C(c1ccccc1)c1ccccc1)NCCCCc1cccnc1,550
10,CCCCC/C(=C/C=C/C(=O)N[C@H](C)CCCc1cccnc1)c1ccc(OC)cc1,10
11,COc1ccc(C(=C/C=C/C(=O)N[C@@H](CCCc2cccnc2)C2CC2)c2ccc(OC)cc2)cc1,60
12,CCCC[C@H](CCCc1cccnc1)NC(=O)/C=C/C=C(c1ccc(OC)cc1)c1ccc(OC)cc1,> 1000
13,COc1cccc(C(=C/C=C/C(=O)N[C@H](C)CCCc2cccnc2)c2cccc(OC)c2)c1,35

# Results, then the compound that gave them:
row,IC50 [nM],SMILES
1,400,O=C(/C=C\C=C(c1ccccc1)c1ccccc1)NCCCCc1cccnc1
2,20,O=C(/C=C/C=C(c1cccc(F)c1)c1cccc(F)c1)NCCCCc1cccnc1
3,25,COc1ccc(C(=C/C=C/C(=O)NCCCCc2cccnc2)c2ccc(OC)cc2)cc1
4,30,COc1ccc(/C=C/C=C/C(=O)N[C@H](C)CCCc2cccnc2)cc1
5,2,COc1cccc(C(=C/C=C/C(=O)NCCCCc2cccnc2)c2cccc(OC)c2)c1
6,450,O=C(C=C(c1ccccc1)c1ccccc1)NCCCCc1cccnc1
7,100,O=C(CCC=C(c1ccccc1)c1ccccc1)NCCCCc1cccnc1
8,40,O=C(/C=C/C=C(c1ccc(F)cc1)c1ccc(F)cc1)NCCCCc1cccnc1
9,85,COc1ccc(C(=C/C=C/C(=O)NC(C)(C)CCCc2cccnc2)c2ccc(OC)cc2)cc1
10,120,CC[C@H](CCCc1cccnc1)NC(=O)/C=C/C=C(c1ccc(OC)cc1)c1ccc(OC)cc1
11,40,COc1ccccc1C(=C/C=C/C(=O)NCCCCc1cccnc1)c1ccccc1OC
12,50,CCC/C(=C\C=C\C(=O)N[C@H](C)CCCc1cccnc1)c1ccc(OC)cc1
13,55,COc1ccc(C(=C/C=C/C(=O)NCCCCc2cccnc2)c2ccc(OC)c(OC)c2)cc1OC
14,20,COc1ccc(/C(=C\C=C\C(=O)N[C@H](C)CCCc2cccnc2)C2CCCCC2)cc1
15,55,O=C(C/C=C/C=C(c1ccccc1)c1ccccc1)NCCCCc1cccnc1
16,> 1000,COc1ccc(C(=C/C=C/C(=O)N[C@@H](CCCc2cccnc2)C2CCCC2)c2ccc(OC)cc2)cc1
17,50,COc1ccc(C(=C/C=C/C(=O)N[C@H](C)CCCc2cccnc2)c2ccc(OC)c(OC)c2)cc1OC

# Biological target: Platelet-activating factor receptor (Canis lupus familiaris)
# Assay: Inhibition of [3H]PAF binding to dog platelets.
# Remark: another data set of the same source
row,SMILES,IC50 [nM]
1,CC/C(=C\C=C\C(=O)N[C@H](C)CCCc1cccnc1)c1ccc(OC)cc1,30
2,COc1ccc(/C(=C\C=C\C(=O)N[C@H](C)CCCc2cccnc2)c2ccccc2)cc1,4
3,COc1ccc(C(=C/C=C/C(=O)NC(C)CCCc2cccnc2C)c2ccc(OC)cc2)cc1 (stereo unspecified),30
4,CC[C@@H](CCCc1cccnc1)NC(=O)/C=C/C=C(c1ccc(OC)cc1)c1ccc(OC)cc1,400

# The next lines start with the values.
row,IC50 [nM],SMILES
1,60,O=C(/C=C/C=C(c1ccc(Cl)cc1)c1ccc(Cl)cc1)NCCCCc1cccnc1
2,300,COc1cccc(C(=C/C=C/C(=O)N[C@@H](C)CCCc2cccnc2)c2cccc(OC)c2)c1
3,5,CCCCCCCC/C(=C\C=C\C(=O)N[C@H](C)CCCc1cccnc1)c1ccc(OC)cc1
4,40,COc1cccc(/C(=C/C=C/C(=O)NCCCCc2cccnc2)c2cccc(F)c2)c1
5,40,COc1ccc(/C(=C/C=C/C(=O)N[C@H](C)CCCc2cccnc2)C(C)C)cc1
6,25,COc1ccc(/C(C)=C/C=C/C(=O)N[C@H](C)CCCc2cccnc2)cc1
7,250,COc1ccc(C(=C/C=C/C(=O)NCCOCc2cccnc2)c2ccc(OC)cc2)cc1
